Results from US20080299131A1, “Anti-Viral Compositions” (priority 2004, published 2008).
Entries after “also recorded” stand apart in the source; their conditions may differ.

Legend:
EEV [1] = type: cell-based, Vaccinia virus strain WR
[2] = Tolerability of polyanions administered to mice; conditions: for adverse effects after intraperitoneal injection: unpublished data; for weight loss or illness after intranasal administration: up to 2 mg/mouse intranasally
[3] = test system: VACV harvested from supernatant of infected cells (predominantly EEV); type: cell-based, Vaccinia virus strain WR
[4] = test system: VACV strain WR-induced actin tails; type: cell-based, Vaccinia virus strain WR
VACV strain WR [5] = type: in vivo, mice; conditions: 2 mg polyanion intranasally 2 days post-infection; for benefit with polyanion in mice that received human IgG: Hu anti-VV Ab 500 μg; for weight loss after infection, polyanion alone: non-immune IgG, 1×10^4 pfu
VACV strain WR [6] = type: in vivo, mice; conditions: 3×10^3 pfu, polyanion intranasally on one and three days post-infection
[7] = test system: VACV (most likely IMV form); conditions: DS per se at 80 μg/ml; cited from earlier work
EEV [8] = type: cell-based, Vaccinia virus
VACV strain WR [9] = type: cell-based, Vaccinia virus strain WR
EEV membrane = test system: EEV membrane; design: species or system Vaccinia virus strain WR
CEV outer membrane = type: cell-based, Vaccinia virus strain WR
VACV strain WR [10] = test system: VACV strain WR; design: species or system mice; conditions: mouse, in vivo

| Substance | relative effectiveness at rendering EEV sensitive to anti-IMV antibody (EEV [1]) | adverse effects after intraperitoneal injection [2] | infectivity of virus in the supernatant of VACV-infected cells [3] | neutralizing activity of both antisera [3] | virus infectivity in the supernatant (EEV [1]) | actin tails formed in cells that made actin tails [4] | cells found to make actin tails [4] [%] | protection with polyanion in mice passively immunised with rabbit anti-IMV IgG (VACV strain WR [5]) | benefit with polyanion in mice that received human IgG (VACV strain WR [5]) | weight loss after infection, polyanion alone (VACV strain WR [5]) | benefit in vivo at lower virus challenge (VACV strain WR [6]) | weight loss or illness after intranasal administration [2] | also measured |
| --- | --- | --- | --- | --- | --- | --- | --- | --- | --- | --- | --- | --- | --- |
| dextran sulphate [DS-HMW] | more potent than HP and DS; also recorded: more effective than DS with lower molecular weight | did not affect the mice adversely | – | – | – | – | – | – | – | – | – | – | body weight reduction ([2]; 2 mg/mouse intranasally, after 2 days): 15%; weight loss or illness after intranasal administration ([2]; listed as high MW DS): increased respiratory effort, followed by breathing difficulty |
| dextran sulphate [DS] | – | – | did not reduce the infectivity | 56-63% | abolished virus infectivity | significantly fewer actin tails were formed | 15 | potentiated the therapeutic effect of this Ab | less effective | slightly less weight loss | confirmed | did not cause weight loss or illness | inhibition of VACV [7]: only partially inhibit VACV |
| heparin [HP-HWM] | more potent than HP and DS; also recorded: more effective than heparin with lower molecular weight | – | – | – | – | – | – | – | – | – | – | – | – |
| heparin [HP] | more effective at the dose tested than desulphated HP | did not affect the mice adversely | did not reduce the infectivity | 55-61% | abolished virus infectivity | significantly fewer actin tails were formed | 15 | provided protection to a level equivalent to rabbit IgG generated against live infection | provided similar benefit | slightly less weight loss | confirmed | did not cause weight loss or illness | binding of virus (EEV [8]): neither binding nor entry of virus was affected significantly; entry of virus (intracellular cores) (EEV [8]): neither binding nor entry of virus was affected significantly; titre of virus released into the culture medium (VACV strain WR [9]): no significant difference; titre of virus that remained cell-associated (VACV strain WR [9]): no significant difference; surface of virions associated with EEV membrane (EEV membrane): 46.4%; actin tails seen by EM (CEV outer membrane): actin tails were rarely seen; outer membrane of CEV bound to the cell surface (CEV outer membrane): disrupted the outer membrane of CEV; reduction of level of virus in lungs (VACV strain WR [10]): about 10 fold; reduction of levels of virus in the brain (VACV strain WR [10]): > 100 fold; virus titres, HP in absence of anti-VACV Ab (VACV strain WR [10]): titres were lower than in the absence of HP |
